# Legend:
# SPL [1] = molecular target: T1, SPL (Homo sapiens, UniProt O95470); details: cited from earlier work
# T1 sequence (O95470 1-568): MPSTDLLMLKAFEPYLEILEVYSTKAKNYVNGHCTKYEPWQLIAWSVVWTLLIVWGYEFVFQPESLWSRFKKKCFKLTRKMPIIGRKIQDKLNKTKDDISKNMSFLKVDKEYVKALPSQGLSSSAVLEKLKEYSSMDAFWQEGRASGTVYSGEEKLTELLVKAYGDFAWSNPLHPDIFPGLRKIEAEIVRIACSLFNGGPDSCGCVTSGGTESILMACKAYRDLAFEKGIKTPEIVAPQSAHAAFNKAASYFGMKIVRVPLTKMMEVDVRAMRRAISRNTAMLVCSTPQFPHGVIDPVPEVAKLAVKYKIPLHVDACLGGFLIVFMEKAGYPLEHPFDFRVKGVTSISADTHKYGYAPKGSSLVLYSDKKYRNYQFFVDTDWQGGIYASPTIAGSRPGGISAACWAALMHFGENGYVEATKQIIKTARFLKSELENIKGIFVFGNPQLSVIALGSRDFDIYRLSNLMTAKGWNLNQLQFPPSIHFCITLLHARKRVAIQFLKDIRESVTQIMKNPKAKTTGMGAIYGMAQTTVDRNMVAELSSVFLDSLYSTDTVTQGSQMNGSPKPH
# [2] = tested on: human SPL luciferase reporter construct; experiment: SPL gene expression, human SPL luciferase reporter in HEK293 cells; format: cell-based; details: 0.3 μM or 3.0 μM, 24 hours
# Description: (A) SPL gene expression. HEK293 cells were co-transfected with a human SPL luciferase reporter construct and the sea pansy luciferase reporter as a control for transfection efficiency. Twenty-four hours after transfection, cells were treated with 0.3 μM FTY720, 3.0 μM FTY720 or vehicle and incubated for another 24 hours at 37° C. Luciferase activity was then determined as a measure of expression, as described in Experimental Methods. Values shown are luciferase activity normalized to sea pansy luciferase; (B) SPL protein expression. Thymic extracts from control mice (time 0) and mice treated with FTY720 for 24 hours were evaluated for SPL protein expression by immunoblotting. Actin was used as a loading control.
# SPL expression: To evaluate the effect of FTY720 and FTY720-P on SPL gene expression, HEK293 cells were treated for 30 minutes with 3 μM of either drug, followed by transfection with pSPL-BamHI, a human SPL-luciferase reporter construct. After 48 hours, reporter expression was determined by luciferase activity as described (Oskouian et al., (2005) J Biol Chem 280, 18403-18410)). Western blotting of mouse tissue extracts was performed using a 1:2000 dilution of polyclonal sera raised against the murine SPL C-terminal peptide: (NH2)—V-T-Q-G-N-Q-M-N-G-S—P—K—P—R—(COOH). [SEQ ID NO:11] […]
# SPL [3] = molecular target: T1, SPL; experiment: FTY720-P metabolism: stability in the presence of SPL, recovery quantified by HPLC; format: biochemical; set-up: expressed in transfected cells; host or cells: HEK293 infected with adenoviral vector; details: for stability in the presence of SPL (amount recovered by HPLC): incubated 0-24 hours with extracts of HEK293 cells overexpressing human SPL, standard SPL reaction conditions
# Description: (A) Twenty nanomoles of FTY720-P were incubated with SPL enzyme for 0-24 hours under standard SPL reaction conditions in the absence of dihydrosphingosine 1-phosphate substrate. At the indicated times the reaction was stopped, and FTY720-P was recovered and quantified by HPLC. (B) Twenty nanomoles of S1P were incubated with extracts from cells overexpressing SPL for 0-24 hours, or alternatively, with extracts from cells containing pcDNA3.0 vector control which had no appreciable SPL activity (PC) for 2 hours. S1P was recovered and quantified by HPLC.
# FTY720-P metabolism: Whole cell extracts of HEK293 cells stably overexpressing human SPL were prepared as previously described (Reiss et al., (2004) J Biol Chem 279, 1281-1290). These extracts contained approximately 700 picomoles/mg protein/minute of SPL activity. Twenty nanomoles FTY720-P were suspended in SPL reaction buffer (Van Veldhoven et al., (1991) J Biol Chem 266, 12502-12507), and 25 microliters of whole cell extract were added to initiate the reaction. At various time points, reaction was stopped by addition of a 2 ml mixture of chloroform and methanol (2:1 v/v), 1 ml of 1M KCl, 0.1 ml concentrated HCl. Sample was mixed by vortexing and centrifuged at 1200 rpm for 5 min. […] After derivatization with OPA, the sample was injected onto the HPLC for quantification. The HPLC analysis was conducted using a Beckman (Torrance, Calif., USA) system Gold 125 solvent module with a Spectra-Physics SP8410 fluorescence detector and a C18 (2) Luna 3 μm, 75×4.6 mm column from Phenomenex (CA). […] Recovery of S1P was determined by HPLC quantitation, as described below for S1P measurements in mouse tissues.
# Confirmation of FTY720-P by LCMS: Samples corresponding to FTY720-P peak identified on HPLC were evaluated by LCMS to confirm FTY720-P by mass analysis. Twenty microliters of sample were injected into the LCMS and mass spectrum scans from 300 to 500 m/z and specific ions m/Z 388 and 410 were quantified for FTY720-P. A reverse phase C18 column from Phenomenex (2.1 mm×15 cm) was used. […]
# SPL [4] = molecular target: T1, SPL; experiment: Inhibition of SPL activity in vitro (whole cell extracts of HEK293 cells with human SPL adenoviral construct); format: biochemical; set-up: expressed in transfected cells; host or cells: HEK293 infected with adenoviral vector
# Description: Various concentrations of FTY720 or its phosphorylated derivative (FTY720P) were incubated for 30 minutes on ice with whole cell extracts containing high SPL activity by virtue of a human SPL adenoviral expression construct. SPL activity was determined. (A) FTY720; (B) FTY720-P.
# SPL enzyme assay: Tissues were homogenized by sonication in 9 volumes of ice-cold homogenization buffer (5 mM MOPS pH 7.5, 1 mM DTT, 1 mM EDTA, 0.25 M sucrose, and 5 micrograms/ml each chymostatin, leupeptin, pepstatin A and antipain). SPL assays were conducted using 50 micrograms protein per assay and radioactive [4,5 ^3H]DHS1P substrate, as described previously (Reiss et al., (2004) J Biol Chem 279, 1281-1290). For in vitro FTY720 and FTY720-P experiments, drug was incubated with whole cell extracts prepared from HEK293 cells infected with an adenoviral vector expressing human SPL. These extracts contained approximately 200 picomoles/mg protein/minute SPL activity. Drug was incubated with extracts for 30 minutes, followed by addition of extracts to reaction buffer and substrate to initiate the reaction.
# Although treatment with FTY720 was associated with low (nanomolar) circulating drug levels, it was possible that local concentrations within cells and subcellular compartments may have been considerably higher, since FTY720 has been reported to be actively transported into cells by the actions of drug transporters that recognize long chain bases (Honig et al., (2003) J Clin Invest 111, 627-637).
# [5] = tested on: C3H murine splenocytes and thymocytes
# Description: Cellular Immune Functions—Mitogen Induced Lymphoproliferation: Spleen and thymus tissues were harvested from wild type C3H mice, and cell suspensions were prepared as described previously (Mishell et al., (1980) in Selected Methods in Cellular Immunology (Mishell, B., and Shiigi, S., eds), pp. 3-27, WH Freeman and Company, San Francisco). Cells were dispersed in sterile medium in 96 well microtiter plates (Falcon) at a concentration of 1×10^6 cells/ml for spleen and 5×10^6 cells/ml for thymus. […] Cell proliferation was determined after 48 and 72 hours using the Cell Titer 96 Non-Radioactive Cell Proliferation Assay from Promega (Mannheim, Germany), according to the manufacturer's instructions.
smiles,measurement,setting,value
CCCCCCCCCCCCCCCC(=O)N[C@@H](CO)[C@H](O)C1=C(CCCCCCCCCCCCC)C1 [C16-cyclopropenylceramide],altering SPL activity,SPL [1],capable of altering SPL activity
CCCCCCCCc1ccc(CC[C@](N)(CO)COP(=O)(O)O)cc1 [FTY720-P],SPL gene expression (luciferase activity normalized to sea pansy luciferase),[2],not affected
same,stability in the presence of SPL (amount recovered by HPLC),SPL [3],remained stable for up to 24 hours
same,substrate for SPL,SPL [3]; standard conditions,did not serve as a substrate for SPL
same,dose dependence of SPL inhibition in vitro,SPL [4],not dose-dependent
same,only concentration that was inhibitory to SPL activity in vitro,SPL [4]; 30 minutes incubation with extracts,30 µM
"CCCCCCCCCCCCCC1=C([C@@H](O)[C@H](CO)NC(=O)CCCCCCC)C1 [GT11, C8-cyclopropenylceramide]",non-specific cytotoxic effects (light microscopy),[5],negligible
same,LPS-stimulated lymphoproliferation,"[5]; two different dosages, 24 hours preincubation, 1 or 10 μg/ml LPS, read after 48 and 72 hours",reduced
same,altering SPL activity,SPL [1],capable of altering SPL activity
"CCCCCCCCCCCCC/C=C/[C@@H](O)[C@@H](N)COP(=O)(O)O [S1P, Sphingosine-1-phosphate]",stability in the presence of SPL (amount recovered by HPLC),SPL [3],diminished
Cc1ncc(CO)c(C)c1O [deoxypyridoxine],altering SPL activity,SPL [1],capable of altering SPL activity
